One data set concerns the target human CB1R (Homo sapiens (Human), UniProt P21554). Nature of the data set: CB1 cAMP (assay 2). It is filed as cell-based. Particulars: CHO cells expressing human CB1R; inhibition of forskolin-stimulated cAMP.
The next data set deals with human MDR1 P-gp (Homo sapiens (Human), UniProt P08183). Nature of the data set: MDCK assay: efflux in MDCK-MDR1 cell monolayers (assay 3). It is filed as in vitro ADME. The following applies: pH 7.4, 37° C. The method, then: C. Assessment of Efflux in Madin-Darby Canine Kidney Cells Transfected with the Human MDR1 Gene (MDCK Assay) (Assay 3)
Apparent permeability coefficients (PE) of the compounds across the MDCK-MDR1 cell monolayers are measured (pH 7.4, 37° C.) in apical-to-basal (AB) and basal-to-apical (BA) transport direction. AB permeability (PEAB) represents drug absorption from the blood into the brain and BA permeability (PEBA) drug efflux from the brain back into the blood via both passive permeability as well as active transport mechanisms mediated by efflux and uptake transporters that are expressed on the MDCK-MDR1 cells, predominantly by the overexpressed human MDR1 P-gp. The compounds are assigned to permeability/absorption classes by comparison of the AB permeabilities with the AB permeabilities of reference compounds with known in vitro permeability and oral absorption in the human. Identical or similar permeabilities in both transport directions indicate passive permeation, vectorial permeability points to additional active transport mechanisms. Higher PEBA than PEAB indicates the involvement of active efflux mediated by MDR1 P-gp. Active transport is concentration-dependently saturable. MDCK-MDR1 cells (1-2×10e5 cells/1 cm2 area) are seeded on filter inserts (Costar transwell polycarbonate or PET filters, 0.4 μm pore size) and cultured (DMEM) for 7 days. […]

Chain of human CB1R (P21554 whole entry): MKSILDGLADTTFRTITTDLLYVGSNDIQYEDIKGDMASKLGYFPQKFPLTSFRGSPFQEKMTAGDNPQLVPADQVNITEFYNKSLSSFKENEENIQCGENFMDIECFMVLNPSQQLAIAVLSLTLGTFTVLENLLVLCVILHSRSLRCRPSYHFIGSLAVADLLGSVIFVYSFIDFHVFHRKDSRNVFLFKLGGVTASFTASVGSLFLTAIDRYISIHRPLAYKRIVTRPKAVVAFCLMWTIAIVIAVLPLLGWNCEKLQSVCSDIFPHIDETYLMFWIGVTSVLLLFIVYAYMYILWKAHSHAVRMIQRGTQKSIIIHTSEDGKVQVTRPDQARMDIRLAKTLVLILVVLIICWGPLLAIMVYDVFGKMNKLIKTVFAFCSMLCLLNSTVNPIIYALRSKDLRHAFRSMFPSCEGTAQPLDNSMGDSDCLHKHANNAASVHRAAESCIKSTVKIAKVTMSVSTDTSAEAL
Chain of human MDR1 P-gp (P08183 whole entry): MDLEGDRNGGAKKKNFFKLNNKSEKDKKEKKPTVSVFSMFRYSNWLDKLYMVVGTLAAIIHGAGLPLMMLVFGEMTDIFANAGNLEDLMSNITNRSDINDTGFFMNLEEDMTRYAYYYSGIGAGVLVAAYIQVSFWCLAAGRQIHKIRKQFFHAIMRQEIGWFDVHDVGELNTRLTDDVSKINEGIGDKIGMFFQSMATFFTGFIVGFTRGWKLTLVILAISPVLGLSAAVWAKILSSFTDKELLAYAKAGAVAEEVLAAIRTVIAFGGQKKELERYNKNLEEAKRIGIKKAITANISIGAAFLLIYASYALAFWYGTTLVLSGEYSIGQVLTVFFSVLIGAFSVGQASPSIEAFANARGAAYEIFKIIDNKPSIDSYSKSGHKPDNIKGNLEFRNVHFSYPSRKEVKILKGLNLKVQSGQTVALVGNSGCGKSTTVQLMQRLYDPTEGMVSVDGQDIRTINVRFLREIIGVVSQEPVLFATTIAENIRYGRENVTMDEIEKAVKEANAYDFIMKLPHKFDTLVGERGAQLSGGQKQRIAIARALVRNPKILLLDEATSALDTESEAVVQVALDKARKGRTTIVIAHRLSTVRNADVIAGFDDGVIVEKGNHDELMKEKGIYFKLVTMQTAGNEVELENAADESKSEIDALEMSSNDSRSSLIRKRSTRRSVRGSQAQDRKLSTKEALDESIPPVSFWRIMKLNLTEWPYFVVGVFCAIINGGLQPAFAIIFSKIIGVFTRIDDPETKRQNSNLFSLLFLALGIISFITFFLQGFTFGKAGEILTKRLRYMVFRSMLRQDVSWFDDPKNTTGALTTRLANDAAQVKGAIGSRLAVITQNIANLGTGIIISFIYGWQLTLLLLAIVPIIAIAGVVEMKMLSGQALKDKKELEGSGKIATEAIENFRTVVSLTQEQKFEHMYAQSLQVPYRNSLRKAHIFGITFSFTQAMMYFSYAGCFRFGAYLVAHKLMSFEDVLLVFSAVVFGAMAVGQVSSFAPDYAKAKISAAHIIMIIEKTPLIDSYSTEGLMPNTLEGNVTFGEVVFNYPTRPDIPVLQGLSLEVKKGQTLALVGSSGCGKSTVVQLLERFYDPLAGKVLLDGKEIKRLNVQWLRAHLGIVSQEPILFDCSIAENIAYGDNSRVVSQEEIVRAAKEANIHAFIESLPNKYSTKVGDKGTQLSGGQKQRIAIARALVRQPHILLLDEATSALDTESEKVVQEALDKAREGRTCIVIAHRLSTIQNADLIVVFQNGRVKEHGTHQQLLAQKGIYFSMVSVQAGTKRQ

In turn, `CC(C)(CO)c1cc(NC(=O)C(C)(C)S(=O)(=O)CCCC(F)(F)F)on1` [Example 7 WO2010036630] had an EC50 on human CB1R of 28 µM. In addition, on human MDR1 P-gp (dog, read-out: MDCK efflux ratio (BA/AB)), the efflux ratio turned out to be 6.9.
`CC(C)(O)c1cc(NC(=O)C(C)(C)S(=O)(=O)CCCC(F)(F)F)on1` [Example 134 in WO2010036630] had a concentration for a half-maximal effect (EC50) on human CB1R of 26 µM. On human MDR1 P-gp, the “MDCK efflux ratio (BA/AB)” value is 3.2.

The EC50 is the midpoint of the concentration-response curve.

Source of the values: patent US10570125B2, “(Cyano-dimethyl-methyl)-isoxazoles and -[1,3,4]thiadiazoles” (Centrexion Therapeutics Corporation, priority 2013, dated 2020).
